This note sets out measurements from ChEMBL document CHEMBL4513161, “CO-ADD screening of MMV (CH) - Pandemic Response Box” (2021).

Assay [1] deals with Pseudomonas aeruginosa. The assay can be described thus: Antibacterial activity against Pseudomonas aeruginosa PAO397 [PAO1 d(mexAB-oprM) d(mexCD-oprJ) d(mexEF-oprN) d(mexJKL) d(mexXY) d(opmH)] (CO-ADD:GN_211); MIC in CAMBH media using NBS plates, by OD(600). It is filed as functional. To be noted: ASSAY_TEST Inhibition of Bacterial Growth, detection method Absorption (OD600), MEDIA CAMHB, plate type 384well, CORNING #3640, time 18 hr.

Assay [2] concerns Candida albicans. The assay is described as follows: microbe, parasite or virus in culture. The note with it: ATCC 90028, ASSAY_TEST Inhibition of Fungal Growth, detection method Absorption (OD530), plate type 384well, NBS, CORNING #3640.
Description: Antifungal activity against Candida albicans ATCC 90028 (CO-ADD:FG_001); MIC in YNB media using NBS plates, by OD630
Assay [3] relates to Staphylococcus aureus. The assay can be described thus: microbe, parasite or virus in culture. The note with it: ATCC 43300, 18 h, ASSAY_TEST Inhibition of Bacterial Growth, detection method Absorption (OD600), MEDIA CAMHB, plate type 384well, NBS, CORNING #3640.
Description: Antibacterial activity against Staphylococcus aureus MRSA ATCC 43300 (CO-ADD:GP_020); MIC in CAMBH media, using NBS plates, by OD(600)
The subject of assay [4] is HEK293. The assay can be described thus: cells. It is filed as functional, Homo sapiens, ATCC CRL1573. The note with it: Homo sapiens, ATCC CRL1573, HEK293; ASSAY_TEST Inhibition of Cell Viability; detection method Resazurin; Fluorescence (ex560/em590); MEDIA DMEM with 10% FBS; plate type 384well; TC; CORNING #3712; time 18 hr; read-out: CC50. For orientation: The colour change of resazurin is a common sign of viable cells or microbes.

The subject of assay [5] is Cryptococcus neoformans.
Description: Antifungal activity against Cryptococcus neoformans H99 ATCC 208821 (CO-ADD:FG_002); MIC in YNB media using NBS plates, by Resazurin OD(600-570)
The subject of assay [6] is Acinetobacter baumannii. The assay can be described thus: microbe, parasite or virus in culture. To be noted: ATCC 19606, 18 h, ASSAY_TEST Inhibition of Bacterial Growth, detection method Absorption (OD600), MEDIA CAMHB, plate type 384well, NBS, CORNING #3640.
Description: Antibacterial activity against Acinetobacter baumannii ATCC 19606 (CO-ADD:GN_034); MIC in CAMBH media using NBS plates, by OD600
Assay [7] deals with Escherichia coli. The assay can be described thus: microbe, parasite or virus in culture. To be noted: ATCC 25922, 18 h, ASSAY_TEST Inhibition of Bacterial Growth, detection method Absorption (OD600), MEDIA CAMHB, plate type 384well, NBS, CORNING #3640.
Description: Antibacterial activity against Escherichia coli ATCC 25922 (CO-ADD:GN_001); MIC in CAMBH media using NBS plates, by OD(600)
Assay [8] concerns Pseudomonas aeruginosa. The assay can be described thus: microbe, parasite or virus in culture. To be noted: ATCC 27853, 18 h, ASSAY_TEST Inhibition of Bacterial Growth, detection method Absorption (OD600), MEDIA CAMHB, plate type 384well, NBS, CORNING #3640.
Description: Antibacterial activity against Pseudomonas aeruginosa ATCC 27853 (CO-ADD:GN_042); MIC in CAMBH media using NBS plates, by OD(600)
For assay [9], the system named is Klebsiella pneumoniae. The assay can be described thus: microbe, parasite or virus in culture. The note with it: ATCC 700603, 18 h, ASSAY_TEST Inhibition of Bacterial Growth, detection method Absorption (OD600), MEDIA CAMHB, plate type 384well, NBS, CORNING #3640.
Description: Antibacterial activity against Klebsiella pneumoniae MDR ATCC 70063 (CO-ADD:GN_003); MIC in CAMBH media using NBS plates, by OD(600)

The term CC50 denotes the concentration at which the toxic effect on the cells reaches its halfway point.

Molecules are shown by their SMILES. In brackets after ≈: the same amount, converted by molar mass. Where a name gives a salt, the structure may show the parent alone. Some results are limits rather than exact numbers.

Turning to `NNC(=O)c1ccncc1` [ISONIAZID], the MIC in [1], in assay [2], in assay [3], in assay [5], in assay [6] and in [7] was over 20 µM in each case. The MIC in assay [8] and in assay [9] was over 20 µM in each case. Besides, the CC50 in [4] was over 20 µM.

Turning to `Cc1c(OCC(F)(F)F)ccnc1C[S+]([O-])c1nc2ccccc2[nH]1` (stereo not drawn) [LANSOPRAZOLE], the MIC in assay [1], in assay [2], in [3], in assay [5], in assay [6] and in assay [7] was over 20 µM each time. The MIC in assay [8] and in assay [9] was over 20 µM each time. Further, in [4], the CC50 was over 20 µM.

Turning to `Cc1oncc1C(=O)Nc1ccc(C(F)(F)F)cc1` [LEFLUNOMIDE], the MIC in assay [1], in assay [2], in assay [3], in [5], in assay [6] and in assay [7] was over 20 µM throughout. For the same molecule, the MIC in assay [8] and in [9] was over 20 µM throughout. Also, the CC50 in [4] is over 20 µM.

For `COc1cccc(N2CCN(C3=Nc4c(F)cccc4[C@H](CC(=O)O)N3c3cc(C(F)(F)F)ccc3OC)CC2)c1` [LETERMOVIR], the MIC in assay [1], in assay [2], in assay [3], in [5], in assay [6] and in assay [7] was over 20 µM each time. Moreover, the MIC in assay [8] and in assay [9] was over 20 µM in each case. In addition, the half-maximal cytotoxic concentration (CC50) in [4] was over 20 µM.

Consider `CC(C)Oc1ccc(-n2cnc3cc(/C=C\c4ccc(C(C)(C)O)cc4)ccc32)cc1` [LHF-535], for which the MIC in assay [1], in assay [2], in [3], in assay [5], in [6] and in [7] was over 20 µM in each case. Besides, the MIC in [8] and in assay [9] was over 20 µM in each case. The 50% cytotoxic concentration (CC50) in assay [4] is 10.6 µM.

On to `CCn1cc(C(=O)O)c(=O)c2cc(F)c(N3CCNC(C)C3)c(F)c21` (stereo not drawn) [LOMEFLOXACIN HYDROCHLORIDE], for which the MIC in assay [1] is 0.312 µM; in assay [2], over 20 µM; in assay [3], 10 µM; in assay [5] it was over 20 µM; in assay [6], 20 µM; in assay [7], 0.625 µM. Moreover, the MIC in [8] was over 20 µM; in [9], 20 µM. The cytotoxic concentration (CC50) in assay [4] was over 20 µM.

For `O=c1nc(N2CCN(CC3CCCCC3)CC2)sc2c([N+](=O)[O-])cc(C(F)(F)F)cc12` [MACOZINONE], the MIC in assay [1], in assay [2], in [3], in assay [5], in assay [6] and in [7] was over 20 µM each time. Also, the MIC in assay [8] and in assay [9] was over 20 µM throughout. Further, the half-maximal cytotoxic concentration (CC50) in assay [4] was over 20 µM.

As for `NCc1ccc(S(N)(=O)=O)cc1` [MAFENIDE], the MIC in assay [1], in [2], in [3], in assay [5], in assay [6] and in [7] was over 20 µM each time. Also, the MIC in assay [8] and in assay [9] was over 20 µM throughout. For the same molecule, the CC50 in assay [4] was over 20 µM.

With `CC(C)Nc1nc2cc(Cl)c(Cl)cc2n1[C@H]1O[C@@H](CO)[C@H](O)[C@@H]1O` [MARIBAVIR], the MIC in assay [1], in assay [2], in [3], in assay [5], in assay [6] and in [7] was over 20 µM in each case. For the same molecule, the MIC in assay [8] and in assay [9] was over 20 µM each time. In assay [4], the CC50 was over 20 µM.

As for `C[N+]1(C)CCCC(OC(=O)C(O)(c2ccccc2)c2ccccc2)C1` (stereo not drawn) [MEPENZOLATE BROMIDE], the MIC in assay [1], in assay [2], in [3], in assay [5], in [6] and in assay [7] was over 20 µM in each case. Moreover, the MIC in assay [8] and in assay [9] was over 20 µM throughout. For the same molecule, the cytotoxic concentration (CC50) in [4] is over 20 µM.

On to `Cc1cc(C)n(O)c(=O)c1` [METIPIROX], for which the MIC in assay [1] was over 20 µM; in assay [2], over 20 µM; in assay [3], over 20 µM; in assay [5], 20 µM (≈ 2.78 µg/mL); in [6], over 20 µM; in [7], over 20 µM. In addition, the MIC in [8] and in assay [9] was over 20 µM throughout. Moreover, the CC50 in [4] was over 20 µM.

Consider `CSc1ccc2c(c1)C(N1CCN(C)CC1)Cc1ccccc1S2` (stereo not drawn) [METITEPINE], for which the MIC in assay [1], in [2], in assay [3], in [5], in [6] and in [7] was over 20 µM each time. In addition, the MIC in [8] and in assay [9] was over 20 µM each time. For the same molecule, the 50% cytotoxic concentration (CC50) in assay [4] was over 20 µM.

With `Cn1cc(NC(=O)c2cc(NC(=O)c3ccc(/C=C/c4cnc5ccccc5c4)cc3)cn2C)cc1C(=O)NCCN1CCOCC1` [MGB-BP-3], the MIC in assay [1] is over 20 µM; in [2], over 20 µM; in assay [3], 1.25 µM (≈ 0.79 µg/mL); in [5], over 20 µM; in assay [6], over 20 µM; in assay [7], over 20 µM. Besides, the MIC in assay [8] and in [9] was over 20 µM each time. In addition, the cytotoxic concentration (CC50) in [4] was 1.71 µM.

On to `CC#C[C@]1(O)CC[C@H]2[C@@H]3CCC4=CC(=O)CCC4=C3[C@@H](c3ccc(N(C)C)cc3)C[C@@]21C` [MIFEPRISTONE], for which the MIC in assay [1], in assay [2], in [3], in assay [5], in assay [6] and in assay [7] was over 20 µM each time. In addition, the MIC in [8] and in assay [9] was over 20 µM throughout. Also, the CC50 in assay [4] is over 20 µM.

On to `Cc1ncc([N+](=O)[O-])n1CC(O)CN1CCOCC1` (stereo not drawn) [MORINIDAZOLE], for which the MIC in assay [1], in assay [2], in assay [3], in [5], in assay [6] and in [7] was over 20 µM each time. Besides, the MIC in assay [8] and in assay [9] was over 20 µM throughout. For the same molecule, the CC50 in assay [4] is over 20 µM.

Take `c1cnc(NCc2ccc(CNc3ncccn3)cc2)nc1` [MSX-122]: the MIC in assay [1], in assay [2], in assay [3], in assay [5], in [6] and in assay [7] was over 20 µM each time. The MIC in [8] and in assay [9] was over 20 µM in each case. The CC50 in assay [4] was over 20 µM.

`CC1CCc2c(N3CCC(O)CC3)c(F)cc3c(=O)c(C(=O)O)cn1c23` (stereo not drawn) [NADIFLOXACIN]: the MIC in [1] is at most 0.156 µM; in [2] it was over 20 µM; in assay [3], at most 0.156 µM; in assay [5], over 20 µM; in assay [6], 20 µM (≈ 7.21 µg/mL); in assay [7], 0.625 µM (≈ 0.225 µg/mL). The MIC in assay [8] worked out at 1.25 µM (≈ 0.45 µg/mL); in assay [9], 20 µM (≈ 7.21 µg/mL). Moreover, the CC50 in assay [4] was over 20 µM.
